What was measured:
[1] = test system: isolated TIL-derived CD4+ TCCs; assay: All isolated TCCs tested against SIN3A* peptide: IFNγ ELISA; type: cell-based, human; parameters: unit not given beside the values
[2] = test system: isolated TIL-derived CD4+ TCCs; assay: All isolated TCCs tested against SIN3A* peptide: proliferation (SI); type: cell-based, human; conditions: for SI: proliferation, sheet 2b

Ac-QPVEFNHAIHYVN-NH2 [SIN3A*]
ΔIFN-γ ([1]; TCC4, sheet 2b): 149.53 | ΔIFN-γ ([1]; TCC11, sheet 2b): 677.024 | ΔIFN-γ ([1]; TCC12, sheet 2b): 3046.79 | ΔIFN-γ ([1]; TCC13, sheet 2b): 3192.25 | ΔIFN-γ ([1]; TCC15, sheet 2b): 3025.62 | ΔIFN-γ ([1]; TCC16, sheet 2b): 180.455 | ΔIFN-γ ([1]; TCC20, sheet 2b): 364.759 | ΔIFN-γ ([1]; TCC29, sheet 2b): 1013.6 | ΔIFN-γ ([1]; TCC31, sheet 2b): 514.2 | ΔIFN-γ ([1]; TCC33, sheet 2b): 2998.1 | ΔIFN-γ ([1]; TCC35, sheet 2b): 228.964 | ΔIFN-γ ([1]; TCC38, sheet 2b): 2702.02 | ΔIFN-γ ([1]; TCC43, sheet 2b): 1674.62 | ΔIFN-γ ([1]; TCC47, sheet 2b): 2470.16 | ΔIFN-γ ([1]; TCC52, sheet 2b): 3139.72 | ΔIFN-γ ([1]; TCC56, sheet 2b): 642.429 | ΔIFN-γ ([1]; TCC57, sheet 2b): 2874.97 | ΔIFN-γ ([1]; TCC60, sheet 2b): 2990.72 | ΔIFN-γ ([1]; TCC63, sheet 2b): 2437.29 | ΔIFN-γ ([1]; TCC64, sheet 2b): 999.502 | ΔIFN-γ ([1]; TCC68, sheet 2b): 1874.1 | ΔIFN-γ ([1]; TCC71, sheet 2b): 665.867 | ΔIFN-γ ([1]; TCC74, sheet 2b): 114.375 | ΔIFN-γ ([1]; TCC75, sheet 2b): 2585.8 | ΔIFN-γ ([1]; TCC76, sheet 2b): 3066.75 | ΔIFN-γ ([1]; TCC80, sheet 2b): 218.522 | ΔIFN-γ ([1]; TCC88, sheet 2b): 3049.73 | ΔIFN-γ ([1]; TCC90, sheet 2b): 3011.57 | ΔIFN-γ ([1]; TCC91, sheet 2b): 1519.81 | ΔIFN-γ ([1]; TCC92, sheet 2b): 2090.54 | ΔIFN-γ ([1]; TCC93, sheet 2b): 2670.59 | ΔIFN-γ ([1]; TCC94, sheet 2b): 2350.89 | ΔIFN-γ ([1]; TCC96, sheet 2b): 2552.89 | ΔIFN-γ ([1]; TCC97, sheet 2b): 2298.23 | ΔIFN-γ ([1]; TCC98, sheet 2b): 2713.07 | ΔIFN-γ ([1]; TCC99, sheet 2b): 3298.51 | ΔIFN-γ ([1]; TCC101, sheet 2b): 3002.86 | ΔIFN-γ ([1]; TCC102, sheet 2b): 3070.31 | ΔIFN-γ ([1]; TCC103, sheet 2b): 2311.95 | ΔIFN-γ ([1]; TCC104, sheet 2b): 2494.03 | ΔIFN-γ ([1]; TCC107, sheet 2b): 2341.01 | ΔIFN-γ ([1]; TCC109, sheet 2b): 2148.29 | ΔIFN-γ ([1]; TCC110, sheet 2b): 2115.13 | ΔIFN-γ ([1]; TCC111, sheet 2b): 2750.31 | ΔIFN-γ ([1]; TCC112, sheet 2b): 334.245 | ΔIFN-γ ([1]; TCC113, sheet 2b): 2127.79 | ΔIFN-γ ([1]; TCC114, sheet 2b): 270.204 | ΔIFN-γ ([1]; TCC115, sheet 2b): 2141.31 | ΔIFN-γ ([1]; TCC116, sheet 2b): 2065.23 | ΔIFN-γ ([1]; TCC117, sheet 2b): 2609.06 | ΔIFN-γ ([1]; TCC120, sheet 2b): 5141.59 | ΔIFN-γ ([1]; TCC121, sheet 2b): 3587.93 | ΔIFN-γ ([1]; TCC124, sheet 2b): 8256.17 | ΔIFN-γ ([1]; TCC125, sheet 2b): 202.234 | ΔIFN-γ ([1]; TCC126, sheet 2b): 7530.28 | ΔIFN-γ ([1]; TCC127, sheet 2b): 9381.79 | ΔIFN-γ ([1]; TCC128, sheet 2b): 4427.79 | ΔIFN-γ ([1]; TCC129, sheet 2b): 4034.06 | ΔIFN-γ ([1]; TCC130, sheet 2b): 4723.17 | ΔIFN-γ ([1]; TCC131, sheet 2b): 125.708 | ΔIFN-γ ([1]; TCC132, sheet 2b): 7560.44 | ΔIFN-γ ([1]; TCC133, sheet 2b): 4444.38 | ΔIFN-γ ([1]; TCC134, sheet 2b): 2468 | ΔIFN-γ ([1]; TCC135, sheet 2b): 4703.02 | ΔIFN-γ ([1]; TCC137, sheet 2b): 3613.61 | ΔIFN-γ ([1]; TCC138, sheet 2b): 0 | SI ([2]; TCC4): 326.128 | SI ([2]; TCC11): 238.815 | SI ([2]; TCC12): 287.573 | SI ([2]; TCC13): 453.401 | SI ([2]; TCC15): 28.5845 | SI ([2]; TCC16): 23.5776 | SI ([2]; TCC20): 244.524 | SI ([2]; TCC29): 34.8583 | SI ([2]; TCC31): 128.595 | SI ([2]; TCC32): 5.805 | SI ([2]; TCC33): 313.375 | SI ([2]; TCC35): 7.243 | SI ([2]; TCC37): 2.779 | SI ([2]; TCC38): 611.635 | SI ([2]; TCC43): 28.9619 | SI ([2]; TCC47): 29.6013 | SI ([2]; TCC52): 25.0598 | SI ([2]; TCC56): 22.816 | SI ([2]; TCC57): 3.669 | SI ([2]; TCC60): 23.5877 | SI ([2]; TCC63): 17.3519 | SI ([2]; TCC67): 7.121 | SI ([2]; TCC68): 7.155 | SI ([2]; TCC72): 5.137 | SI ([2]; TCC75): 11.5536 | SI ([2]; TCC76): 2.574 | SI ([2]; TCC88): 34.5634 | SI ([2]; TCC89): 2.064 | SI ([2]; TCC90): 56.5299 | SI ([2]; TCC91): 28.9154 | SI ([2]; TCC92): 23.8373 | SI ([2]; TCC93): 31.4988 | SI ([2]; TCC94): 41.408 | SI ([2]; TCC96): 17.6927 | SI ([2]; TCC97): 56.4388 | SI ([2]; TCC98): 67.9438 | SI ([2]; TCC99): 7.081 | SI ([2]; TCC101): 5.504 | SI ([2]; TCC102): 3.298 | SI ([2]; TCC103): 23.6756 | SI ([2]; TCC104): 20.3791 | SI ([2]; TCC107): 14.7872 | SI ([2]; TCC109): 67.7177 | SI ([2]; TCC110): 38.4196 | SI ([2]; TCC111): 16.0477 | SI ([2]; TCC112): 3.861 | SI ([2]; TCC113): 9.948 | SI ([2]; TCC114): 19.6549 | SI ([2]; TCC115): 9.682 | SI ([2]; TCC116): 36.7042 | SI ([2]; TCC118): 2.382 | SI ([2]; TCC120): 8.436 | SI ([2]; TCC121): 46.4714 | SI ([2]; TCC124): 44.5013 | SI ([2]; TCC126): 30.498 | SI ([2]; TCC127): 40.4213 | SI ([2]; TCC128): 20.9837 | SI ([2]; TCC129): 2.6751 | SI ([2]; TCC130): 24.2362 | SI ([2]; TCC132): 2.2794 | SI ([2]; TCC133): 8.094 | SI ([2]; TCC134): 2.175 | SI ([2]; TCC135): 13.0838 | SI ([2]; TCC137): 37.685 | SI ([2]; TCC138): 0.96 | CD4+ TCCs that responded by proliferation or production of IFNγ ([2]; TCCs isolated from SIN3A*-stimulated TILs, 3 days, Fig. 2b): 70 out of 124

Reference: publication PMC10208956, “Microbial peptides activate tumour-infiltrating lymphocytes in glioblastoma” (Nature, 2023)
